Measurements from patent US7431936B2, “Proteins involved in cytoadhesion of plasmodium falciparum ring-stage-infected erythrocytes, antibodies which bind to the proteins, and methods for detecting infection, stage of infection and vaccines for protecting against infection” (Institut Pasteur, priority 2000, dated 2008).

Columns and labels:
[1] = system: ring-stage PA^CSA IE cytoadhesion to SBEC ID; test: Protease sensitivity of ring-stage IE cytoadhesion; type: cell-based, P. falciparum; details: protease concentration of 100 μg/ml (FIG. 3C)
Protocol: The protease sensitivity of ring-stage IE cytoadhesion was analyzed using 5 μl of packed PA^CSA IE (8 hours post-invasion). IE were incubated with 10 or 100 μg/ml of trypsin TPCK (Signa) or 100 µg/ml of -chymotrypsin TLCK (Sigma) for 30 minutes at 37° C. The digestion was topped by adding culture medium containing 10% human plasma. The cells were then washed in cytoadhesion medium and allowed to cytoadhere to SBEC ID, as previously described, using untreated PA^CSA as a control.

[2] = system: ring-stage IE^CSA cytoadhesion to SBEC 1D; test: Cytoadhesion inhibition assay of IE^CSA on SBEC 1D; type: cell-based, P. falciparum; details: for inhibitory effect on ring-stage IE binding to SBEC 1D: ring-stage PA^CSA IE 8 hours post-invasion, glycosaminoglycan present or target cells enzyme-treated (FIG. 2B), thrombospondin data not shown; for sensitivity of ring-stage IE^CSA cytoadhesion to inhibitor: 0.1 mg.ml of CSA, or prior treating of target cells with 1 U/ml Case ABC, until the 16th hour after invasion (FIG. 2A); for time after invasion at which inhibition was maximal: CSA and Case ABC tested every 4 hours throughout the cycle (FIG. 2A)
Protocol: Gelatin-enriched preparations of mature-stage IE were resuspended at a concentration of 5×10^6 IE/ml in cytoadhesion medium at pH 6.8. Cytoadhesion microassays were then performed on 12-well IFA slides (Institut Pasteur, Paris) as previously desribed^15.
Ring-stage cytoadhesion assays were performed with endothelial cells as described above and with placental cryosections as previously described^11, with 1 to 10% parasitaemia (a 1×10^7 IE/ml suspension).
For cytoadhesion inhibition assays, the IE were incubated with SBEC in the presence of 2.5 μg/ml thrombospondin, 0.1 mg/ml soluble CSA, dermatan sulphate (CSB), chondroitin-6-sulphate (CSC), keratin sulphate (Ker), byaluronic acid (HA), heparin (Hep) (Fluka, France), or with SBEC previously incubated for 1 hour at 37° C. with 1 U/ml Case (Fluka, France), 1 to 10 U/ml heparinase III (Hepase III (Sigma, France) or 5 μg/ml anti-CD36 FA6-152 Mab (gift from Dr. Edelman). Inhibition assays were also carried out in the presence of sera obtained from Senegalese and Cameroonian patients living in areas of endemic malaria. The sera were obtained from primigravida and multigravida women, an adult and a child, absorbed onto O^+ human blood and SBEC ID, and tested at a dilution of 1/20. The results were compared to those for cytoadhesion in the presence of a 1/20 dilution of a pool of control sera from volunteers who had never contacted malaria.

-chymotrypsin
inhibition of ring-stage IE adhesion after protease treatment of IE [1]: substantially inhibited

Hyaluronic acid
inhibitory effect on ring-stage IE binding to SBEC 1D [2]: no activity

Thrombospondin: mature-stage IE adhesion receptor protein tested at 2.5 μg/ml
inhibitory effect on ring-stage IE binding to SBEC 1D [2]: no effect

chondroitin-sulphate A [CSA]
sensitivity of ring-stage IE^CSA cytoadhesion to inhibitor [2]: insensitive | time after invasion at which inhibition was maximal [2]: 24 h

chondroitinase ABC [Case]
sensitivity of ring-stage IE^CSA cytoadhesion to inhibitor [2]: insensitive | time after invasion at which inhibition was maximal [2]: 24 h | inhibitory effect on ring-stage IE binding to SBEC 1D [2]: no significant inhibitory activity

dermatan-sulphate [CSB]
inhibitory effect on ring-stage IE binding to SBEC 1D [2]: not specific

heparin
inhibition of ring-stage cytoadhesion ([2]; Heparin (100 m/ml) and heparinase, SBEC 1D (FIG. 2B)): about 50%

hyaluronate lyase
inhibitory effect on ring-stage IE binding to SBEC 1D [2]: low level of inhibitory activity

B1: trypsin: protease used to treat ring-stage IE (protein, UniProt P00760 24-246, looked up)
Serine protease 1: IVGGYTCGANTVPYQVSLNSGYHFCGGSLINSQWVVSAAHCYKSGIQVRLGEDNINVVEGNEQFISASKSIVHPSYNSNTLNNDIMLIKLKSAASLNSRVASISLPTSCASAGTQCLISGWGNTKSSGTSYPDVLKCLKAPILSDSSCKSAYPGQITSNMFCAGYLEGGKDSCQGDSGGPVVCSGKLQGIVSWGSGCAQKNKPGVYTKVCNYVSWIKQTIASN
modifications: TPCK-treated
notes: protease used to treat ring-stage IE
inhibition of ring-stage IE adhesion after protease treatment of IE [1]: substantially inhibited
